Experimental data: patent publication US10183019B2, “Treatment of cancer with dihydropyrazino-pyrazines” (Signal Pharmaceuticals, LLC, priority 2013, dated 2019)
pIC50: −log10 of the molar value.

Experiments:
[1] = test system: patient-derived GBM cell line 296; experiment: Gliomasphere Formation Assay; assay type: cell-based; conditions: cell line 296, Recurrent, MGMT status −; 50% sphere formation vs DMSO control
Procedure: (§1) Primary patient-derived GBM tumor samples were dissociated and plated under culture conditions (i.e. DMEM/F12 medium supplemented with B27, 20 ng/mL bFGF, 50 ng/mL EGF, penicillin/streptomycin, L-glutamine and 5 ug/mL heparin) that produce gliomaspheres. Cells were plated at a density of 50 cells per well and allowed to acclimate overnight at 37° C. The Dihydropyrazino-Pyrazine Compounds were added to the cultures on Day 2 and replenished every 7 days. EGF and FGF were also replenished every 7 days. The cells were fixed with PFA/methanol when the smallest sphere was greater than 60 microns, typically 3-5 weeks. The cells were fixed with PFA/methanol and the next day assessed for cell number, using for example, SYTO-9 fluorescent DNA dye. Plates were read 48 h later with a laser scanning imager.

[2] = test system: patient-derived GBM cell line 250; experiment: Gliomasphere Formation Assay; assay type: cell-based; conditions: cell line 250, Recurrent, MGMT Unkn/Highly Expressed; 50% sphere formation vs DMSO control
Procedure: as §1

[3] = test system: patient-derived GBM cell line 206; experiment: Gliomasphere Formation Assay; assay type: cell-based; conditions: cell line 206, Recurrent, MGMT Unkn/Highly Expressed; 50% sphere formation vs DMSO control
Procedure: as §1

[4] = test system: patient-derived GBM cell line 245; experiment: Gliomasphere Formation Assay; assay type: cell-based; conditions: cell line 245, Recurrent; 50% sphere formation vs DMSO control
Procedure: as §1

[5] = test system: patient-derived GBM cell line 309; experiment: Gliomasphere Formation Assay; assay type: cell-based; conditions: cell line 309, Recurrent, MGMT ND; 50% sphere formation vs DMSO control
Procedure: as §1

[6] = test system: patient-derived GBM cell line 350; experiment: Gliomasphere Formation Assay; assay type: cell-based; conditions: cell line 350, Recurrent; 50% sphere formation vs DMSO control
Procedure: as §1

[7] = test system: patient-derived GBM cell line 282; experiment: Gliomasphere Formation Assay; assay type: cell-based; conditions: cell line 282, Primary, MGMT ND; 50% sphere formation vs DMSO control
Procedure: as §1

[8] = test system: patient-derived GBM cell line 217; experiment: Gliomasphere Formation Assay; assay type: cell-based; conditions: cell line 217, Primary; 50% sphere formation vs DMSO control
Procedure: as §1

[9] = test system: patient-derived GBM cell line 206; experiment: Sphere-Reformation Assay; assay type: cell-based; conditions: 7 day pre-treatment, various doses
Procedure: (§2) Tumorsphere lines 206, 217, 254 and 282 in FIGS. 1A, 1B, 1C and 1D, respectively, were dissociated and plated as single cells at a density of 50,000 cells/ml of tumorsphere media in a total of 10 mL per T-25 cell culture flask and 5 flasks per cell line. […] 60 wells were plated from each flask of cells. Tumorspheres were allowed to grow until they achieved at least 60 microns in diameter before they were counted. The percentage of tumorsphere formation was calculated as the number of tumorspheres counted divided by the number of cells seeded times the plating efficiency of the control.
(§3) Patient-derived GBM cell lines cultured under tumorsphere culture conditions maintain a highly heterogenous population of cells, including both sphere-initiating cells, as well as more committed progenitor cells with limited proliferative capabilities. To determine if Compound 1 specifically targets the sphere-initiating cell population, we performed a sphere re-formation assay after Compound 1 pre-treatment. […] Compound 1 may target both the sphere-initiating cells as well as the more committed progenitor cells thus the percentage of sphere-initiating cells in the culture remains constant after Compound 1 treatment.

[10] = test system: patient-derived GBM cell line 282; experiment: Sphere-Reformation Assay; assay type: cell-based; conditions: 7 day pre-treatment, various doses (100 nM and 500 nM not tested)
Procedure: as §2, §3

[11] = test system: patient-derived GBM cell line 254; experiment: Sphere-Reformation Assay; assay type: cell-based
Procedure: as §2, §3

[12] = test system: patient-derived GBM cell line 217; experiment: Sphere-Reformation Assay; assay type: cell-based; conditions: 7 day pre-treatment, various doses
Procedure: as §2, §3

[13] = test system: patient-derived GBM cell line 206; experiment: Combination effect of Compound 1 and TMZ on cell survival (fractional product); assay type: cell-based; conditions: 168 h, 7 days, read-out: % Actual inh.
From the text: (§4) TMZ is an alkylating agent that delivers a methyl group to the purine bases of DNA (O^6-guanine; N^7-guanine and N^3-adenine). The cytotoxic lesion, O^6-methylguanine (O^6-MeG), caused by TMZ can be directly removed by methylguanine methyltransferase (MGMT) via direct repair and can also activate mechanisms of mismatch repair (MMR). Futile cycles of MMR lead to the formation of double-stranded DNA breaks and activation of the DNA-PK mediated mechanisms of double-stranded break repair.
(§5) Tumorspheres grown under tumorsphere culture conditions were harvested, dissociated into single cells, and plated at 5,000 cells/well in 96-well plates. […] When the value of the column % actual inhibition divided by % inhibition calculated based on summation is >1=synergism, ˜1=summation, <1=antagonism.

[14] = test system: patient-derived GBM cell line 217; experiment: as above; assay type: cell-based; conditions: 168 h, Cmpd 1 100 nM alone, 7 days, read-out: % Actual inh.
From the text: as §4, §5

[15] = test system: HF2354 PDX (GBM neurosphere line HF2354); experiment: Patient derived xenograft (PDX) survival study; assay type: in vivo, nude mouse; conditions: HF2354 PDX in nude mice; 5 mg/kg oral gavage once a day, Monday through Friday; monotherapy
Procedure: FIG. 2: Kaplan-Meier survival analysis for HF2354 PDX line (end of study). Treatment schedule for survival (Rx) and target hit (TH) are indicated.
Immunocompromised mice (nude mouse NCRNU-M, TACONIC) were implanted with a GBM neurosphere line derived from fresh surgical specimens. The cell line was characterized as following:
Patient derived xenograft (PDX) treatments started four weeks prior to when the first animal was expected to become symptomatic. […] Control animals were administered vehicle alone. Target hit cohorts were treated with one dose of each compound and sacrificed 2 and 24 h later (n=3/group). As necessary, fluids and supplemental food were administered to ameliorate weight loss.

CCN1C(=O)CNc2ncc(-c3ccc(-c4nc[nH]n4)nc3C)nc21 [Compound 1, 1-ethyl-7-(2-methyl-6-(1H-1,2,4-triazol-3-yl)pyridin-3-yl)-3,4-dihydropyrazino[2,3-b]pyrazin-2(1H)-one]
pIC50 [1]: 6.26 | pIC50 [2]: 7.40 | pIC50 [3]: 6.85 | pIC50 [4]: 7.65 | pIC50 [5]: 6.80 | pIC50 [6]: 7.41 | pIC50 [7]: 7.59 | pIC50 [8]: 7.38 | number of spheres formed by cells that survived pre-treatment vs control untreated cells [9]: not significantly different | number of spheres formed by cells that survived pre-treatment vs control untreated cells [10]: not significantly different | tumorsphere re-formation after pre-treatment ([11]; 500 nM, 7 days): No tumorspheres re-formed | number of spheres formed by cells that survived pre-treatment vs control untreated cells ([11]; 7 day pre-treatment, various doses): not significantly different | number of spheres formed by cells that survived pre-treatment vs control untreated cells [12]: not significantly different | inhibition at 0.05 µM ([13]; Cmpd 1 50 nM alone): 10.6% | inhibition at 0.1 µM ([13]; Cmpd 1 100 nM alone): 23.1% | inhibition at 0.5 µM ([13]; Cmpd 1 500 nM alone): 65.8% | inhibition at 0.1 µM [14]: 51% | survival (Kaplan-Meier) [15]: significantly increased survival
